What was measured:
Format in all cases: in vivo
[1] = tested on: soybean (Glycine max var. Winchester); assay: Preemergence herbicidal activity, soybean; conditions: Rate of Application 0.3 Kg/Ha, examined after 12-17 days
[2] = tested on: wheat (Triticum aestivum var. Lew); assay: Preemergence herbicidal activity, wheat; conditions: Rate of Application 0.3 Kg/Ha, examined after 12-17 days
[3] = tested on: field corn (Zea mays var. Pioneer 3732); assay: Preemergence herbicidal activity, corn; conditions: Rate of Application 0.3 Kg/Ha, examined after 12-17 days
[4] = tested on: velvetleaf (Abutilon theophrasti); assay: Preemergence herbicidal activity, velvetleaf; conditions: Rate of Application 0.3 Kg/Ha, examined after 12-17 days
[5] = tested on: morningglory (Ipomea lacunosa or Ipomea hederacea); assay: Preemergence herbicidal activity, morningglory; conditions: Rate of Application 0.3 Kg/Ha, examined after 12-17 days
[6] = tested on: common chickweed (Stellaria media); assay: Preemergence herbicidal activity, chickweed; conditions: Rate of Application 0.3 Kg/Ha, examined after 12-17 days
[7] = tested on: common cocklebur (Xanthium strumarium L.); assay: Preemergence herbicidal activity, cocklebur; conditions: Rate of Application 0.3 Kg/Ha, examined after 12-17 days
[8] = tested on: blackgrass (Aloepecurus myosuroides); assay: Preemergence herbicidal activity, blackgrass; conditions: Rate of Application 0.3 Kg/Ha, examined after 12-17 days
[9] = tested on: green foxtail (Setaria viridis); assay: Preemergence herbicidal activity, green foxtail; conditions: Rate of Application 0.3 Kg/Ha, examined after 12-17 days
[10] = tested on: Johnsongrass (Sorghum halepense); assay: Preemergence herbicidal activity, johnsongrass; conditions: Rate of Application 0.3 Kg/Ha, examined after 12-17 days
[11] = tested on: soybean (Glycine max var. Winchester); assay: Postemergence herbicidal activity, soybean; conditions: rate of application 0.3 Kg/Ha, rated after 12-17 days
[12] = tested on: wheat (Triticum aestivum var. Lew); assay: Postemergence herbicidal activity, wheat; conditions: rate of application 0.3 Kg/Ha, rated after 12-17 days
[13] = tested on: field corn (Zea mays var. Pioneer 3732); assay: Postemergence herbicidal activity, corn; conditions: rate of application 0.3 Kg/Ha, rated after 12-17 days
[14] = tested on: velvetleaf (Abutilon theophrasti); assay: Postemergence herbicidal activity, velvetleaf; conditions: rate of application 0.3 Kg/Ha, rated after 12-17 days
[15] = tested on: morningglory (Ipomea lacunosa or Ipomea hederacea); assay: Postemergence herbicidal activity, morningglory; conditions: rate of application 0.3 Kg/Ha, rated after 12-17 days
[16] = tested on: common chickweed (Stellaria media); assay: Postemergence herbicidal activity, chickweed; conditions: rate of application 0.3 Kg/Ha, rated after 12-17 days
[17] = tested on: blackgrass (Aloepecurus myosuroides); assay: Postemergence herbicidal activity, blackgrass; conditions: rate of application 0.3 Kg/Ha, rated after 12-17 days
[18] = tested on: green foxtail (Setaria viridis); assay: Postemergence herbicidal activity, green foxtail; conditions: rate of application 0.3 Kg/Ha, rated after 12-17 days
[19] = tested on: Johnsongrass (Sorghum halepense); assay: Postemergence herbicidal activity, johnsongrass; conditions: rate of application 0.3 Kg/Ha, rated after 12-17 days

Row | SMILES | PREEMERGENCE HERBICIDAL ACTIVITY (% CONTROL) SOY [1] [%] | PREEMERGENCE HERBICIDAL ACTIVITY (% CONTROL) WHT [2] [%] | PREEMERGENCE HERBICIDAL ACTIVITY (% CONTROL) CRN [3] [%] | PREEMERGENCE HERBICIDAL ACTIVITY (% CONTROL) ABUTH [4] [%] | PREEMERGENCE HERBICIDAL ACTIVITY (% CONTROL) IPOSS [5] [%] | PREEMERGENCE HERBICIDAL ACTIVITY (% CONTROL) STEME [6] [%] | PREEMERGENCE HERBICIDAL ACTIVITY (% CONTROL) XANPE [7] [%] | PREEMERGENCE HERBICIDAL ACTIVITY (% CONTROL) ALOMY [8] [%] | PREEMERGENCE HERBICIDAL ACTIVITY (% CONTROL) SETVI [9] [%] | PREEMERGENCE HERBICIDAL ACTIVITY (% CONTROL) SORHA [10] [%] | Postemergence herbicidal activity (% control) SOY [11] [%] | Postemergence herbicidal activity (% control) WHT [12] [%] | Postemergence herbicidal activity (% control) CRN [13] [%] | Postemergence herbicidal activity (% control) ABUTH [14] [%] | Postemergence herbicidal activity (% control) IPOSS [15] [%] | Postemergence herbicidal activity (% control) STEME [16] [%] | Postemergence herbicidal activity (% control) ALOMY [17] [%] | Postemergence herbicidal activity (% control) SETVI [18] [%] | Postemergence herbicidal activity (% control) SORHA [19] [%] | other results
1 | CC(C)Oc1nc2c(-n3c(=O)cc(C(F)(F)F)n(C)c3=O)c(F)cc(Br)c2o1 [Compound 107] | 80 | 60 | 90 | 100 | 100 | 100 | 40 | 75 | 100 | 100 | 95 | 40 | 100 | 100 | 100 | 100 | 90 | 100 | 100 | 
2 | C=C(C)c1cc2c(Cl)cc(F)c(-n3c(=O)cc(C(F)(F)F)n(C)c3=O)c2o1 [Compound 231] | 100 | 80 | 100 | 100 | 100 | 100 | 100 | 90 | 100 | 100 | 100 | 70 | 100 | 100 | 100 | 100 | 100 | 100 | 100 | 
3 | COCOC(C)(C)c1cc2c(Cl)cc(F)c(-n3c(=O)cc(C(F)(F)F)n(C)c3=O)c2o1 [Compound 252] | 100 | 100 | 100 | 100 | 100 | 100 |  | 100 | 100 | 100 | 95 | 90 | 100 | 100 | 100 | 100 | 100 | 100 | 100 | 
4 | Cn1c(C(F)(F)F)cc(=O)n(-c2c(F)cc(Cl)c3[nH]cnc23)c1=O [Compound 362] | 100 | 100 | 100 | 100 | 100 | 100 | 100 | 100 | 100 | 100 | 100 | 100 | 100 | 100 | 100 | 100 | 100 | 100 | 100 | 
5 | Cn1c(C(F)(F)F)cc(=O)n(-c2c(F)cc(Cl)c3[nH]c(C(F)(F)F)nc23)c1=O [Compound 365, 3-(4-CHLORO-6-FLUORO-2-TRIFLUOROMETHYLBENZIMIDAZOL-7-YL)-1-METHYL-6-TRIFLUOROMETHYL-2,4(1H,3H)-PYRIMIDINEDIONE] |  |  |  |  |  |  |  |  |  |  |  |  |  |  |  |  |  |  |  | inhibition at 300 g/ha ([2]; Triticum aestivum, pre-emergence, read-out: PREEMERGENCE HERBICIDAL ACTIVITY (% CONTROL) WHT): 30%; inhibition at 300 g/ha ([3]; Zea mays, pre-emergence, read-out: PREEMERGENCE HERBICIDAL ACTIVITY (% CONTROL) CRN): 30%; inhibition at 300 g/ha ([4]; Abutilon theophrasti, pre-emergence, read-out: PREEMERGENCE HERBICIDAL ACTIVITY (% CONTROL) ABUTH): 100%; inhibition at 300 g/ha ([5]; Ipomoea, pre-emergence, read-out: PREEMERGENCE HERBICIDAL ACTIVITY (% CONTROL) IPOSS): 100%; inhibition at 300 g/ha ([6]; Stellaria media, pre-emergence, read-out: PREEMERGENCE HERBICIDAL ACTIVITY (% CONTROL) STEME): 100%; inhibition at 300 g/ha ([7]; Xanthium strumarium, pre-emergence, read-out: PREEMERGENCE HERBICIDAL ACTIVITY (% CONTROL) XANPE): 100%; inhibition at 300 g/ha ([8]; Alopecurus myosuroides, pre-emergence, read-out: PREEMERGENCE HERBICIDAL ACTIVITY (% CONTROL) ALOMY): 60%; inhibition at 300 g/ha ([9]; Setaria viridis, pre-emergence, read-out: PREEMERGENCE HERBICIDAL ACTIVITY (% CONTROL) SETVI): 75%; inhibition at 300 g/ha ([10]; Sorghum halepense, pre-emergence, read-out: PREEMERGENCE HERBICIDAL ACTIVITY (% CONTROL) SORHA): 60%; inhibition at 300 g/ha ([11]; Glycine max, post-emergence, read-out: Postemergence herbicidal activity (% control) SOY): 100%; inhibition at 300 g/ha ([12]; Triticum aestivum, post-emergence, read-out: Postemergence herbicidal activity (% control) WHT): 40%; inhibition at 300 g/ha ([13]; Zea mays, post-emergence, read-out: Postemergence herbicidal activity (% control) CRN): 70%; inhibition at 300 g/ha ([14]; Abutilon theophrasti, post-emergence, read-out: Postemergence herbicidal activity (% control) ABUTH): 100%; inhibition at 300 g/ha ([15]; Ipomoea, post-emergence, read-out: Postemergence herbicidal activity (% control) IPOSS): 100%; inhibition at 300 g/ha ([16]; Stellaria media, post-emergence, read-out: Postemergence herbicidal activity (% control) STEME): 100%; inhibition at 300 g/ha ([17]; Alopecurus myosuroides, post-emergence, read-out: Postemergence herbicidal activity (% control) ALOMY): 70%; inhibition at 300 g/ha ([18]; Setaria viridis, post-emergence, read-out: Postemergence herbicidal activity (% control) SETVI): 80%; inhibition at 300 g/ha ([19]; Sorghum halepense, post-emergence, read-out: Postemergence herbicidal activity (% control) SORHA): 30%

Reference: patent US6352958B1, “Cycloimido-substituted benzofused heterocyclic herbicides” (FMC Corporation, priority 1997, dated 2002)
